The test deals with T1, IKZF2 (Homo sapiens, UniProt Q96SW2+Q9UKS7).
T1 construct: CRISPR/Cas9—mediated insertion of the HiBiT peptide tag (Promega™) to the N-terminus of the IKZF2 gene locus; endogenous in cells; host or cells: MOLT4 cells, with CRISPR/Cas9 knock-in of HiBiT at the endogenous IKZF2 locus
The experiment in a line: HiBit-IKZF2 assay (HiBiT-Helios degradation in MOLT4 cells). Type of test: cell-based. Particulars: for Dmax: 10 μM to 0.00026 μM; for DC50: concentration at which 50% of HiBiT-Helios degradation was achieved. The method in brief: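 MOLT4 cells carried an endogenous N-terminal HiBiT tag on IKZF2, knocked in by CRISPR. Cells were treated in triplicate at 13 concentrations (10 μM–0.00026 μM), and remaining HiBiT-Helios was read by lytic luminescence at set timepoints. Data were normalized to DMSO to give the 50% degradation concentration, with Dmax taken from the luminescence range.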
In general terms: HiBiT is a short tag that completes a luciferase, so light tracks the accessible tagged protein.

Setting [1] is: MOLT-4, extent of degradation from highest to lowest concentration, read-out: Dmax.
[2] abbreviates: extent of degradation from highest to lowest concentration.

Read-outs that look alike come from different tables or passages of the source.

In patent US20230002397A1, “SMALL MOLECULE DEGRADERS OF HELIOS AND METODS OF USE” (DANA-FARBER CANCER INSTITUTE, INC., priority 2019, published 2023) one finds Dmax and DC50 data, which are given here for 48 compounds.

T1 sequence (Q9UKS7 whole entry): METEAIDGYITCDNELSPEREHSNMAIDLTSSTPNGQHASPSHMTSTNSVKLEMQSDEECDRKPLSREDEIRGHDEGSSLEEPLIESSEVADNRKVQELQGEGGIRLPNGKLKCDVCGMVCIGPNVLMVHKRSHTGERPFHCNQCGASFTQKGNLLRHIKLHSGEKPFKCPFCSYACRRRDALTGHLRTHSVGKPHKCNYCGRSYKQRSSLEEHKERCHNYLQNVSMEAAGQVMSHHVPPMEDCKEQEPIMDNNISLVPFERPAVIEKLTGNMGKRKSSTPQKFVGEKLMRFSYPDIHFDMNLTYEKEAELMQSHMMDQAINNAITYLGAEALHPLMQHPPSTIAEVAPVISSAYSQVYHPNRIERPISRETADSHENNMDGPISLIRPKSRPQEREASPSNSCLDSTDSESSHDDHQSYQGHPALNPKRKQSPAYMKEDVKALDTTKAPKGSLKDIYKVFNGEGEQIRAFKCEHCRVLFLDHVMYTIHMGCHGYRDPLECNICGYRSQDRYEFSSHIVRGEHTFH
T1 sequence (Q96SW2 whole entry): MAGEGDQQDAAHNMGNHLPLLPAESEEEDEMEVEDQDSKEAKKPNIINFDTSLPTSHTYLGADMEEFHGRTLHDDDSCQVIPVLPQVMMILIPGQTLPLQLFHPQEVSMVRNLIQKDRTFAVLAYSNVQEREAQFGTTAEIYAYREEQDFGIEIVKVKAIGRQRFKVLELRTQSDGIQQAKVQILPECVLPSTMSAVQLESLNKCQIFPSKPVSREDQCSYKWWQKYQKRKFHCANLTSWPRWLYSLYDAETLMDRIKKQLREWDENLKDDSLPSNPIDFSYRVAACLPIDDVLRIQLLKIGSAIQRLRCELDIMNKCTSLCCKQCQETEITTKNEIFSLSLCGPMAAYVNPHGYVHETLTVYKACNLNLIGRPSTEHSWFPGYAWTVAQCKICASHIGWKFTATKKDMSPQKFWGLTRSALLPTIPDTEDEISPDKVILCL
T1 sequence (Q16531 whole entry partner): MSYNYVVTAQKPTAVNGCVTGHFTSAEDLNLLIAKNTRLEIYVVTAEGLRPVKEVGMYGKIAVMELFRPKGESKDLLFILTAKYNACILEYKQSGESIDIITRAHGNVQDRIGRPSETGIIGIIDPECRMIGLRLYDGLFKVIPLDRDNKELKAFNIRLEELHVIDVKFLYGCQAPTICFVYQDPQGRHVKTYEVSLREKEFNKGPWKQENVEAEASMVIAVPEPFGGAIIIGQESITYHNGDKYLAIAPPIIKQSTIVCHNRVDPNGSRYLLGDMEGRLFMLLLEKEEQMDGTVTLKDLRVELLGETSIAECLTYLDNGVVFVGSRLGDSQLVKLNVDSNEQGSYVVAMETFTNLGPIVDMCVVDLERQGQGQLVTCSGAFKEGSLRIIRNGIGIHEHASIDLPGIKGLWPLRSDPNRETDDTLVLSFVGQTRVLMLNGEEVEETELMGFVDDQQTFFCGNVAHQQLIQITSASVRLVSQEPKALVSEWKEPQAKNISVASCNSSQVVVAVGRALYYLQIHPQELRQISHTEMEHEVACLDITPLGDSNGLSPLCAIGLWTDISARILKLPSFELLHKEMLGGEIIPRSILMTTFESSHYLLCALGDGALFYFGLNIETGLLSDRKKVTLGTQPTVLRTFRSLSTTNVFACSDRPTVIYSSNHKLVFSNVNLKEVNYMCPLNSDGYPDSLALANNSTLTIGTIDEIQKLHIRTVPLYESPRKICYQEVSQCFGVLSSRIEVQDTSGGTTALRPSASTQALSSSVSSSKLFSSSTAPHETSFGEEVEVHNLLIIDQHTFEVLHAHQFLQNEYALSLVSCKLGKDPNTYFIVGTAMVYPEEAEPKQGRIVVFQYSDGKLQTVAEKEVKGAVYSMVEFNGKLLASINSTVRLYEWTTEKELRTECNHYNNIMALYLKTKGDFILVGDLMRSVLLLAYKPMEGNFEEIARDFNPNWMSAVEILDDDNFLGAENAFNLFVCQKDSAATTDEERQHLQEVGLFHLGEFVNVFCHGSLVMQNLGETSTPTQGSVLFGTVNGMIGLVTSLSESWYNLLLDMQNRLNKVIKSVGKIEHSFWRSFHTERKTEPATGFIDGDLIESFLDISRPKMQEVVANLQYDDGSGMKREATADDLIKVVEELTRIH

The term Dmax denotes the largest share of the target that was removed. For orientation: DC50 means the concentration at which degradation of the target reaches its halfway point. For `O=C1CCC(N2Cc3cc(C4(O)CCN(Cc5cc(F)cc(F)c5)CC4)ccc3C2=O)C(=O)N1` (stereo not drawn) [Compound 205], the DC50 was < 10 nM. In addition, the Dmax under setting [1] was > 70%.
Regarding `O=C1CCC(N2Cc3cc(C4(O)CCN(Cc5ccc(-c6ccccc6)cc5)CC4)ccc3C2=O)C(=O)N1` (stereo not drawn) [Compound 206], the half-maximal degradation concentration (DC50) was < 10 nM. Further, under setting [1], the Dmax was > 70%.
With `O=C1CCC(N2Cc3cc(C4(O)CCN(Cc5cccc(Cl)c5)CC4)ccc3C2=O)C(=O)N1` (stereo not drawn) [Compound 207], the DC50 is < 10 nM. Moreover, the Dmax under setting [1] was > 70%.
For the compound `O=C1CCC(N2Cc3cc(C4(O)CCN(Cc5cccc(OC(F)F)c5)CC4)ccc3C2=O)C(=O)N1` (stereo not drawn) [Compound 208], the half-maximal degradation concentration (DC50) was < 10 nM. The greatest degradation seen (Dmax) under setting [1] is > 70%.
In the same order, the values of `N#CC1(COc2ccccc2CN2CCC(O)(c3ccc4c(c3)CN(C3CCC(=O)NC3=O)C4=O)CC2)CC1` (stereo not drawn) [Compound 209] are 10 to 30 nM and 50 to 70%.
In the same order, the values of `O=C1CCC(N2Cc3cc(C4(O)CCN(Cc5ccccc5)C4)ccc3C2=O)C(=O)N1` (stereo not drawn) [Compound 210] are 30 to 150 nM and 30 to 50%.
In the same order, the values of `O=C1CCC(N2Cc3cc(C4CCN(Cc5ccccc5)C(CO)C4)ccc3C2=O)C(=O)N1` (stereo not drawn) [Compound 212] are 30 to 150 nM and 50 to 70%.
In the case of `O=C1CCC(N2Cc3cc(C4CCN(Cc5ccc6c(c5F)C(=O)N(c5ccccc5)C6)CC4)ccc3C2=O)C(=O)N1` (stereo not drawn) [Compound 213], the half-maximal degradation concentration (DC50) fell in the range of 10 to 30 nM. In addition, the Dmax result under setting [2] is recorded as “++ (“++” is from >50% to <70%)”.
Compound `Cc1ccccc1N1Cc2ccc(CN3CCC(c4ccc5c(c4)CN(C4CCC(=O)NC4=O)C5=O)CC3)cc2C1=O` (stereo not drawn) [Compound 214] gave a DC50 of 10 to 30 nM. Also, the greatest degradation seen (Dmax) under setting [1] fell in the range of 50 to 70%.
Compound `Cc1cccc(N2Cc3ccc(CN4CCC(c5ccc6c(c5)CN(C5CCC(=O)NC5=O)C6=O)CC4)cc3C2=O)c1` (stereo not drawn) [Compound 215] displayed a 50% degradation concentration (DC50) of 10 to 30 nM. Also, the Dmax under setting [1] was > 70%.
Take `Cc1ccc(N2Cc3ccc(CN4CCC(c5ccc6c(c5)CN(C5CCC(=O)NC5=O)C6=O)CC4)cc3C2=O)cc1` (stereo not drawn) [Compound 216]: the half-maximal degradation concentration (DC50) was < 10 nM. Further, the greatest degradation seen (Dmax) under setting [1] is 50 to 70%.
In the same order, the values of `O=C1CCC(N2Cc3cc(C4CCN(Cc5ccc6c(c5)C(=O)N(c5cccc(O)c5)C6)CC4)ccc3C2=O)C(=O)N1` (stereo not drawn) [Compound 217] are < 10 nM and > 70%.
`O=C1CCC(N2Cc3cc(C4CCN(Cc5ccc6c(c5)C(=O)N(c5ccccc5O)C6)CC4)ccc3C2=O)C(=O)N1` (stereo not drawn) [Compound 218] returned a DC50 of 10 to 30 nM. In addition, the greatest degradation seen (Dmax) under setting [1] is > 70%.
In the same order, the values of `O=C1CCC(N2Cc3cc(C4(O)CCN(Cc5ccc6c(c5)C(=O)N(c5ccccc5O)C6)CC4)ccc3C2=O)C(=O)N1` (stereo not drawn) [Compound 219] are < 10 nM and > 70%.
The like results for `O=C1CCC(N2Cc3cc(C4(O)CCN(Cc5ccc6c(c5)C(=O)N(c5ccccn5)C6)CC4)ccc3C2=O)C(=O)N1` (stereo not drawn) [Compound 220] were, in that order, < 10 nM and > 70%.
The like results for `O=C1CCC(N2Cc3cc(C4CCN(Cc5ccc6c(c5)C(=O)N(c5ncccc5F)C6)CC4)ccc3C2=O)C(=O)N1` (stereo not drawn) [Compound 221] were, in that order, < 10 nM and 50 to 70%.
As for `O=C1CCC(N2Cc3cc(C4CCN(Cc5ccc6c(c5)C(=O)N(c5cnsc5)C6)CC4)ccc3C2=O)C(=O)N1` (stereo not drawn) [Compound 222], the half-maximal degradation concentration (DC50) is < 10 nM. The Dmax under setting [1] lay within 50 to 70%.
As for `O=C1CCC(N2Cc3cc(C4CCN(Cc5ccc6c(c5)C(=O)N(c5ccsn5)C6)CC4)ccc3C2=O)C(=O)N1` (stereo not drawn) [Compound 223], the half-maximal degradation concentration (DC50) lay within 10 to 30 nM. Besides, the greatest degradation seen (Dmax) under setting [1] lay within 50 to 70%.
As to `O=C1CCC(N2Cc3cc(C4CCN(Cc5ccc6c(c5)C(=O)N(c5ccns5)C6)CC4)ccc3C2=O)C(=O)N1` (stereo not drawn) [Compound 224], the DC50 is < 10 nM. Moreover, the Dmax under setting [1] is > 70%.
Take `O=C1CCC(N2Cc3cc(C4(O)CCN(Cc5ccc6c(c5)C(=O)N(c5ccns5)C6)CC4)ccc3C2=O)C(=O)N1` (stereo not drawn) [Compound 225]: the DC50 was < 10 nM. The Dmax under setting [1] was > 70%.
The compound `O=C1CCC(N2Cc3cc(C4CCN(Cc5cccc(Nc6ncc(F)cn6)c5)CC4)ccc3C2=O)C(=O)N1` (stereo not drawn) [Compound 226] returned a DC50 of 10 to 30 nM. In addition, under setting [1], the maximal degradation (Dmax) lay within 30 to 50%.
The like results for `O=C1CCC(N2Cc3cc(C4CCN(Cc5cccc(Nc6ncc(Cl)cn6)c5)CC4)ccc3C2=O)C(=O)N1` (stereo not drawn) [Compound 227] were, in that order, < 10 nM and 50 to 70%.
As to `Cc1cnc(Nc2cccc(CN3CCC(c4ccc5c(c4)CN(C4CCC(=O)NC4=O)C5=O)CC3)c2)nc1` (stereo not drawn) [Compound 228], the DC50 was 10 to 30 nM. Under setting [1], the maximal degradation (Dmax) was 50 to 70%.
Regarding `Cc1ccnc(Nc2cccc(CN3CCC(c4ccc5c(c4)CN(C4CCC(=O)NC4=O)C5=O)CC3)c2)n1` (stereo not drawn) [Compound 229], the 50% degradation concentration (DC50) is < 10 nM. Besides, the Dmax under setting [1] lay in the range of 50 to 70%.
In the same order, the values of `O=C1CCC(N2Cc3cc(C4CCN(Cc5cccc(Nc6ncc(F)cn6)c5F)CC4)ccc3C2=O)C(=O)N1` (stereo not drawn) [Compound 230] are 30 to 150 nM and 50 to 70%.
In the case of `Cc1ccnc(Nc2cccc(CN3CCC(c4ccc5c(c4)CN(C4CCC(=O)NC4=O)C5=O)CC3)c2F)n1` (stereo not drawn) [Compound 231], the 50% degradation concentration (DC50) is < 10 nM. Under setting [1], the Dmax lay in the range of 50 to 70%.
In the same order, the values of `CN(c1cccc(CN2CCC(c3ccc4c(c3)CN(C3CCC(=O)NC3=O)C4=O)CC2)c1)c1ncccn1` (stereo not drawn) [Compound 232] are 10 to 30 nM and 50 to 70%.
`O=C1CCC(N2Cc3cc(C4CCN(Cc5cccc(Nc6ccsn6)c5)CC4)ccc3C2=O)C(=O)N1` (stereo not drawn) [Compound 233] gave a DC50 of 10 to 30 nM. Further, under setting [1], the Dmax fell in the range of 50 to 70%.
In the case of `O=C1CCC(N2Cc3cc(C4(O)CCN(Cc5ccc6ncn(-c7ccccc7)c(=O)c6c5)CC4)ccc3C2=O)C(=O)N1` (stereo not drawn) [Compound 234], the DC50 was < 10 nM. Under setting [2], the Dmax result was “+++ (“+++” is >70%)”.
On to `O=C1CCC(N2Cc3cc(C4(O)CCN(Cc5ccc6ncn(-c7ccccn7)c(=O)c6c5)CC4)ccc3C2=O)C(=O)N1` (stereo not drawn) [Compound 235], for which the half-maximal degradation concentration (DC50) is < 10 nM. For the same compound, the maximal degradation (Dmax) under setting [1] is > 70%.
On to `O=C1CCC(N2Cc3cc(C4(O)CCN(Cc5ccc6ccc(-c7ccccc7)nc6c5)CC4)ccc3C2=O)C(=O)N1` (stereo not drawn) [Compound 236], for which the 50% degradation concentration (DC50) is < 10 nM. Besides, under setting [1], the greatest degradation seen (Dmax) was > 70%.
Turning to `N#Cc1ccccc1CN1CCC(O)(c2ccc3c(c2)CN(C2CCC(=O)NC2=O)C3=O)CC1` (stereo not drawn) [Compound 237], the half-maximal degradation concentration (DC50) was < 10 nM. Moreover, the greatest degradation seen (Dmax) under setting [1] was 50 to 70%.
The like results for `N#Cc1cccc(CN2CCC(O)(c3ccc4c(c3)CN(C3CCC(=O)NC3=O)C4=O)CC2)c1` (stereo not drawn) [Compound 238] were, in that order, < 10 nM and > 70%.
For the compound `N#Cc1ccc(CN2CCC(O)(c3ccc4c(c3)CN(C3CCC(=O)NC3=O)C4=O)CC2)cc1` (stereo not drawn) [Compound 239], the 50% degradation concentration (DC50) is < 10 nM. Also, under setting [1], the Dmax is > 70%.
Consider `O=C1CCC(N2Cc3cc(C4(O)CCN(Cc5cnc(-c6ccccc6)s5)CC4)ccc3C2=O)C(=O)N1` (stereo not drawn) [Compound 240], for which the DC50 is < 10 nM. Moreover, the Dmax under setting [1] was > 70%.
Take `O=C1CCC(N2Cc3cc(C4(O)CCN(Cc5cccc6scnc56)CC4)ccc3C2=O)C(=O)N1` (stereo not drawn) [Compound 241]: the DC50 was < 10 nM. The Dmax under setting [1] was > 70%.
On to `O=C1CCC(N2Cc3cc(C4(O)CCN(Cc5ccc6ncsc6c5)CC4)ccc3C2=O)C(=O)N1` (stereo not drawn) [Compound 242], for which the half-maximal degradation concentration (DC50) was < 10 nM. Further, under setting [1], the Dmax is > 70%.
Turning to `O=C1CCC(N2Cc3cc(C4(O)CCN(Cc5cccc(F)c5F)CC4)ccc3C2=O)C(=O)N1` (stereo not drawn) [Compound 243], the DC50 is < 10 nM. For the same compound, under setting [1], the maximal degradation (Dmax) is > 70%.
In the same order, the values of `O=C1CCC(N2Cc3cc(C4(O)CCN(Cc5ccc(F)c(F)c5)CC4)ccc3C2=O)C(=O)N1` (stereo not drawn) [Compound 244] are < 10 nM and > 70%.
The like results for `O=C1CCC(N2Cc3cc(C4(O)CCN(Cc5c(F)cccc5F)CC4)ccc3C2=O)C(=O)N1` (stereo not drawn) [Compound 245] were, in that order, < 10 nM and 50 to 70%.
The like results for `O=C1CCC(N2Cc3cc(C4(O)CCN(Cc5ccc6c(c5)CCO6)CC4)ccc3C2=O)C(=O)N1` (stereo not drawn) [Compound 246] were, in that order, < 10 nM and > 70%.
`O=C1CCC(N2Cc3cc(C4(O)CCN(Cc5ccc(OC(F)F)cc5)CC4)ccc3C2=O)C(=O)N1` (stereo not drawn) [Compound 247]: the DC50 is < 10 nM. Under setting [1], the greatest degradation seen (Dmax) is > 70%.
In the case of `O=C1CCC(N2Cc3cc(C4(O)CCN(Cc5ccccc5OC(F)F)CC4)ccc3C2=O)C(=O)N1` (stereo not drawn) [Compound 248], the DC50 was < 10 nM. Moreover, under setting [1], the maximal degradation (Dmax) is > 70%.
Take `O=C1CCC(N2Cc3cc(C4(O)CCN(Cc5ccccc5C(F)(F)F)CC4)ccc3C2=O)C(=O)N1` (stereo not drawn) [Compound 249]: the DC50 was < 10 nM. For the same compound, under setting [1], the greatest degradation seen (Dmax) was > 70%.
The like results for `O=C1CCC(N2Cc3cc(C4(O)CCN(Cc5cccc(C(F)(F)F)c5)CC4)ccc3C2=O)C(=O)N1` (stereo not drawn) [Compound 250] were, in that order, < 10 nM and > 70%.
On to `O=C1CCC(N2Cc3cc(C4(O)CCN(Cc5ccc(C(F)(F)F)cc5)CC4)ccc3C2=O)C(=O)N1` (stereo not drawn) [Compound 251], for which the DC50 is < 10 nM. Besides, under setting [1], the Dmax is > 70%.
The like results for `O=C1CCC(N2Cc3cc(C4(O)CCN(Cc5ccccc5Oc5ccccc5)CC4)ccc3C2=O)C(=O)N1` (stereo not drawn) [Compound 252] were, in that order, < 10 nM and > 70%.
The like results for `O=C1CCC(N2Cc3cc(C4(O)CCN(Cc5ccc(Oc6ccccc6)cc5)CC4)ccc3C2=O)C(=O)N1` (stereo not drawn) [Compound 253] were, in that order, < 10 nM and 50 to 70%.
